Assays:
[1] = tested on: fasted male Harlan Sprague Dawley rats; experiment: Formalin model; type: in vivo, rat
Description: (§1) These well known pain models conveniently may be carried out as summarized below. […] All data are analyzed by ANOVA and Dunnett's t-test using JMPv4.1 (SAS Institute Inc., Cary, N.C.) statistical software unless otherwise indicated. Data are expressed as means±SEM. Specific conditions for each model are briefly described.
Formalin model: Drug is administered prior to formalin (50 μl, 5%), injected s.c. into the dorso-lateral surface of the right hindpaw. Paw-licking behavior is measured in an automated assay, as number of events, from 0-50 minutes after formalin. Data are expressed as paw-licking pain behavior events in early phase (0-5 minutes) or late phase (15-40 minutes). […] L5/L6 Spinal Nerve ligation model: Tight ligation is performed on L5 and L6 spinal nerves (one side only). Two weeks later, mechanical allodynia behavior is measured using von Frey filaments using incremental bending forces (0.5-15 g) at various time points after drug administration. Carrageenan model: Carrageenan (100 μl, 3%) is injected into the plantar surface of the right paw, and drug is administered two hours after carrageenan. Thermal hyperalgesia is measured using a radiant heat source, with a 30 second cut off to prevent tissue damage. Paw withdrawal latency in seconds is measured as the difference between the inflammed paw and the non-inflammed left paw. Capsaicin model: Drug is administered prior to capsaicin. Capsaicin (25 μl, 30 μg) in olive oil is injected into the plantar surface of the right paw. Mechanical allodynia behavior is measured using von Frey filaments using incremental bending forces (0.5-15 g) at 15 minutes and 1 hour after capsaicin. Tail Flick model: Radiant heat source at base of tail with 10 sec cut off is used to elicit tail flick response at various time points after drug administration. Rotorod test: Male Sprague Dawley rats (180-230 g, Harlan labs, Indianapolis) are used for the rotorod test. […] Data are analyzed by ANOVA and Dunnett's t-test using JMPv4.1 (SAS Institute Inc., Cary, N.C.) statistical software. Data are expressed as means±SEM.

[2] = molecular target: T1, human recombinant mGlu1a receptor (Homo sapiens, UniProt Q13255); experiment: glutamate induced calcium flux (FLIPR, Fluo-3) in AV-12 cells expressing mGlu1a; type: cell-based; details: inhibition of peak fluorescence response to glutamate at EC90% (10 μM)
T1 construct: expressed in transfected cells
Description: The relative potency and selectivity of compounds of the instant invention for mGlu1 receptors is evaluated using stable clonal cell lines expressing recombinant mGlu1, 2, 3, 4. 5 or 8 receptors transfected into AV12 cell lines containing the rat EAAT1 glutamate transporter (RGT) cells.
For example, in more detail, compounds of the present invention are evaluated for effects on glutamate induced calcium flux responses using an AV-12 cell line expressing human recombinant mGlu1a receptor protein (see Kingston et al. Neuropharmacology. 37(1):1-12, 1998). mGlu1 receptor mediated responses are determined by changes in intracellular calcium concentrations measured by a fluorescent calcium sensitive dye Fluo-3. […] Unincorporated extracellular dye is removed from the wells by washing with buffer solution, and plates are then transferred to a 96-channel fluorimetric imaging plate reader (FLIPR-Molecular Devices Corporation, La Jolla, Calif., USA). Baseline fluorescence readings are undertaken for 10 sec prior to addition of test compounds by an automatic pipetting device integral to the FLIPR instrument. Following a 20 sec delay, glutamate is then added to the wells at an EC90% concentration (10 μM); and changes in fluorescence are monitored over 60 sec. […] IC50 values are calculated using a 4 parameter logistic curve fitting program (GraphPad Prism™ V4 or Activity Base™ V5.3 software).

[3] = tested on: fasted male Harlan Sprague Dawley rats; experiment: Capsaicin model; type: in vivo, rat; details: fasted male HSD rats, at doses with no deficit in the rotorod test
Description: as §1
(§2) Formalin model: Drug is administered prior to formalin (50 μl, 5%), injected s.c. into the dorso-lateral surface of the right hindpaw. Paw-licking behavior is measured in an automated assay, as number of events, from 0-50 minutes after formalin. Data are expressed as paw-licking pain behavior events in early phase (0-5 minutes) or late phase (15-40 minutes). […] Two weeks later, mechanical allodynia behavior is measured using von Frey filaments using incremental bending forces (0.5-15 g) at various time points after drug administration. […] Thermal hyperalgesia is measured using a radiant heat source, with a 30 second cut off to prevent tissue damage. Paw withdrawal latency in seconds is measured as the difference between the inflammed paw and the non-inflammed left paw. […] Mechanical allodynia behavior is measured using von Frey filaments using incremental bending forces (0.5-15 g) at 15 minutes and 1 hour after capsaicin. […] Data are analyzed by ANOVA and Dunnett's t-test using JMPv4.1 (SAS Institute Inc., Cary, N.C.) statistical software. Data are expressed as means±SEM.

non-fasted male HSD rats = experiment: L5/L6 Spinal Nerve ligation model; type: in vivo, rat; details: non-fasted male HSD rats (300-350 g), at doses with no deficit in the rotorod test
Description: as §1, §2

[4] = tested on: fasted male Harlan Sprague Dawley rats; experiment: Tail Flick model; type: in vivo, rat; details: fasted male HSD rats, at doses with no deficit in the rotorod test
Description: as §1, §2

Male Sprague Dawley rats = experiment: Rotorod test; type: in vivo, rat; details: at the doses active in the pain models
Description: as §1, §2

[5] = tested on: fasted male Harlan Sprague Dawley rats; experiment: Carrageenan model; type: in vivo, rat; details: fasted male HSD rats, at doses with no deficit in the rotorod test
Description: as §1, §2

[6] = in vivo; cited from earlier work
[7] = in vivo; cited from earlier work; remark: listed apart in the source

T1 sequence (Q13255 19-1194): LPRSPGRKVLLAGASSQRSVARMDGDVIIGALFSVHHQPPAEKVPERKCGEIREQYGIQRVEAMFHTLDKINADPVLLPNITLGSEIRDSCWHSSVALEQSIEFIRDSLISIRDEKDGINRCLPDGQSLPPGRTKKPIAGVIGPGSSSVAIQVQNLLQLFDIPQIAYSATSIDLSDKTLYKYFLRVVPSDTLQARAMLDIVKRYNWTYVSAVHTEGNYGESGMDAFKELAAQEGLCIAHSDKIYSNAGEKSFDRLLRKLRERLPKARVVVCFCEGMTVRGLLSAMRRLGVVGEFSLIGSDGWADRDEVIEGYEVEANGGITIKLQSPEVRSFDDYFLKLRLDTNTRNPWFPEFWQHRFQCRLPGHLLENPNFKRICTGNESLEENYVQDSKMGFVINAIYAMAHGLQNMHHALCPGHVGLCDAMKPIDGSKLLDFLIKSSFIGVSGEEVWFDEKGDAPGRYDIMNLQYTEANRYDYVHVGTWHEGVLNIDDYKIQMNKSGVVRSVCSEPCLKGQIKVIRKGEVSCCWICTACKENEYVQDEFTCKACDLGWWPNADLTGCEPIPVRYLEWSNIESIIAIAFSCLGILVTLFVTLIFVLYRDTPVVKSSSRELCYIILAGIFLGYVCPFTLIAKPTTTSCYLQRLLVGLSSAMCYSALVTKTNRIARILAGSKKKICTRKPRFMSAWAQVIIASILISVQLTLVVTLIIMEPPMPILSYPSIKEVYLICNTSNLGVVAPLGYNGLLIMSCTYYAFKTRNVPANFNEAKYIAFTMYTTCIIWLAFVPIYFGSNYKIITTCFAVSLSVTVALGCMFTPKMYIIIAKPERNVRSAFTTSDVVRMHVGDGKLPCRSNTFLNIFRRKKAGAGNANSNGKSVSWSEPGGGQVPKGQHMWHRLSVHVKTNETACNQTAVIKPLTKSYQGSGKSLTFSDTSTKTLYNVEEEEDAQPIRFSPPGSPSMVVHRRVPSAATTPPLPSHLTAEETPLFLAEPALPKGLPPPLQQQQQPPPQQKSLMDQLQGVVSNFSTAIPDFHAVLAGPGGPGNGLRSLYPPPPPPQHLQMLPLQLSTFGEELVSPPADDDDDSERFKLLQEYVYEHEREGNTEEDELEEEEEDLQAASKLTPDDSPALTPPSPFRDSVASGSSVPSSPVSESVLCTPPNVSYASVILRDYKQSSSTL

SMILES | late phase pain behavior (paw-licking, 15-40 minutes) ([1]; 1 to 30 mg/kg) | IC50 [2] | activity in the formalin model ([1]; fasted male HSD rats, at doses with no deficit in the rotorod test) | late phase pain behavior (paw-licking, 15-40 minutes) ([1]; fasted rats, 3 to 60 mg/kg, p.o., 1 hour prior to formalin) | activity in the capsaicin model [3] | activity in the L5/L6 spinal nerve ligation model (non-fasted male HSD rats) | activity in the tail flick model [4] | performance in the rotorod test (Male Sprague Dawley rats) | activity in the carrageenan model [5] | nocifensive responses in the formalin test [6] | mechanical allodynia in the L5/L6 spinal nerve ligation model [7]
Cc1c(-c2ccc(Cl)cc2)nsc1NC(=O)[C@@H]1C[C@H]1C [Example 6, (R,R)—N-[3-(4-chlorophenyl)-4-methylisothiazol-5-yl]-2-methylcyclopropanecarboxamide] | dose dependent attenuation | < 20 nM | – | – | – | – | – | – | – | – | –
COc1ccc(-c2nsc(NC(=O)[C@@H]3C[C@H]3C)c2C)cc1 [Example 1, (R,R)—N-[3-(4-methoxyphenyl)-4-methylisothiazol-5-yl]-2-methylcyclopropanecarboxamide] | – | < 20 nM | dose-dependent activity | dose dependent attenuation | dose-dependent activity | dose-dependent activity | dose-dependent activity | no deficit in performance | dose-dependent activity | – | –
COc1ccc(Nc2ncnc3ccc(OC)cc23)cc1 [LY456236] | – | – | – | – | – | – | – | – | – | can reduce nocifensive responses | can reduce
